Several values for one entry are separate records, joined by “and”; a condition that tells them apart may be missing. Equal entries are not always repeated.
What was measured:
[1] = test system: VeroE6/TMPRSS2 cells
[2] = in vitro; settings: African green monkey
[3] = test system: SARS-CoV-2 (WK-521 strain); test: Anti-SARS-CoV-2 assay in infected VeroE6/TMPRSS2 cells (tetrazolium dye method); settings: for Protection of infected cells from virus-induced cell death (in words): MOI 0.002, 3 days
[4] = test system: SARS-CoV-2 spike S1 and ACE2; set-up: method as in PMID 34677731; settings: cited from earlier work

SMILES	Cytotoxicity (in words) [1]	CC50 [2]	Protection of infected cells from virus-induced cell death (in words) [3]	EC50 ([3]; read-out: EC50, suppression of SARS-CoV-2 replication, MOI 0.002, 3 days)	Effect on interaction between SARS-CoV-2 spike S1 and ACE2 (in words) [4]
CC/C=C\C/C=C\C/C=C\CCCCCCCC(=O)OC[C@H](CO[C@H]1O[C@H](CS(=O)(=O)O)[C@@H](O)[C@H](O)[C@H]1O)OC(=O)CCCCCCC/C=C\C/C=C\C/C=C\CC [Compound 1, 1,2-di-(9Z,12Z,15Z-octadecatrienoyl)-3-(6′-sulfo-α-D-quinovosyl)-sn-glycerol]	did not show apparent cytotoxicity	> 100 µM	dose-dependent protection	51.2 µM and 51 µM	
CC/C=C\C/C=C\C/C=C\CCCCCCCC(=O)OC[C@H](CO[C@@H]1O[C@H](CO[C@H]2O[C@H](CO)[C@H](O)[C@H](O)[C@H]2O)[C@H](O)[C@H](O)[C@H]1O)OC(=O)CCCCCCC/C=C\C/C=C\C/C=C\CC [Compound 2, 1,2-di-(9Z,12Z,15Z-octadecatrienoyl)-3-O-(α-D-galactosyl-1-6-β-D-galactosyl)-sn-glycerol]			inhibited cell death caused by SARS-CoV-2 in a concentration-dependent manner		
CC/C=C\C/C=C\C/C=C\CCCCCCCC(=O)OC [Compound 5, Methyl linolenate, reference compound]			inhibited cell death caused by SARS-CoV-2 in a concentration-dependent manner		
C=CCc1ccc(O)c(OC)c1 [eugenol]					inhibited the interaction between SARS-CoV-2 spike S1 and ACE2

From PMC11735596, “Sulfoquinovosyl diacylglycerol, a component of Holy Basil Ocimum tenuiflorum, inhibits the activity of the SARS-CoV-2 main protease and viral replication in vitro” (Journal of Natural Medicines, 2024)
